“Also recorded” adds a separate entry of the source.
Tested on: SKOV-3 cells
Test: HIF-1α stabilization in hypoxia (Western blot)
Type: cell-based
Description: After treatments, cells were harvested into sample buffer containing: 0.2 M Tris-HCL, 4% SDS, 4% β-mercaptoethanol, 40% glycerol, 4 μM pyronin Y. Extracts were sheared through a 24-gauge syringe. Samples were separated by 10% SDS-PAGE and transferred to nitrocellulose membrane and probed with rabbit polyclonal anti-TARS (1:500; Santa Cruz Biotechnology, Dallas, Tex.) or monoclonal anti-HIF-1α (BD Transduction Laboratories, [BD Biosciences, San Jose, Calif.]) (Lounsbury, Beddow et al. 1994). Secondary antibodies were HRP-goat-anti-mouse and HRP-goat-anti-rabbit (1:5,000; Jackson Laboratories, Bar Harbor, Me.).

C[C@@H]1C[C@H](C)C[C@H](C)[C@@H](O)CC(=O)O[C@H]([C@@H]2CC[C@H]2C(=O)O)C/C=C/C=C(/C#N)[C@H](O)[C@@H](C)C1 [BC194]
HIF-1α transcription (SK-OV3 cells responding to hypoxia): no change in HIF-1α transcription
HIF-1α protein stabilization (hypoxia (2% O2), 6 h): diminished the levels of HIF-1α protein stabilization; also recorded: reduce HIF-1α stabilization
